Experimental data: patent EP4631939A1, “SALT AND CRYSTAL FORM OF ANTI-TUMOR HETEROCYCLIC COMPOUND” (CSPC Zhongqi Pharmaceutical Technology (Shijiazhuang) Co., …, priority 2022, dated 2024)

Assays:
[1] = test system: human origin B-cell non-Hodgkin's lymphoma Z-138 cell strain; assay: Subcutaneous Z-138 xenograft in mice; type: in vivo; settings: subcutaneous xenograft in female NOD/SCID mice
[2] = test system: Z-138 cells; assay: Z-138 cell growth inhibition test (CellTiter-Glo, 5 days); type: cell-based; settings: Homo sapiens, incubated 5 days (120 h)
Protocol: The cells were routinely subcultured. After approximately two passages, well-growing cell strains were selected for plating.
• I. The suspension was removed from the incubator, transferred into a 50 mL centrifuge tube, and then centrifuged at 800-1000 rpm for 3-5 min, and the supernatant was discarded. An appropriate volume of culture medium was added to the centrifuge tube, and the cells were gently pipetted to ensure a uniform suspension. Cell counting was performed using the Vi-Cell XR cell counter. • II. Based on the measured cell density, the cell suspension was adjusted to an appropriate concentration. • III. The cell suspension was added to a 384-well plate at a volume of 40 µL/well, with 700 cells/well. For blank control wells, an equal volume of cell-free culture medium was added instead.
• I. The compound was dissolved in 100% DMSO to prepare a 10 mM stock solution. • II. […]
The assay was performed according to the instructions of the Promega CellTiter-Glo luminescent cell viability assay kit (Promega-G7573): • I. The CellTiter-Glo buffer was thawed and let stand at room temperature. • II. […] The luminescence signals were detected on 2104 EnVision plate reader. […]
The dose-response inhibition curve was plotted using XLFit, and IC50 values were calculated using the four-parameter logistic model: [fit = (A + ((B - A)/(1 + ((C/x) ^ D))))].

[3] = target: T1, PRMT5 (Homo sapiens, UniProt O14744); assay: PRMT5 enzymatic activity inhibition test ([3H]-SAM FlashPlate); type: biochemical; settings: for IC50: 5 nM PRMT5, 0.3 µM [3H]-SAM, 100 nM polypeptide substrate
T1 construct: purchased Active Motif 31921
Protocol: A 1× enzyme reaction buffer was prepared using 10 mM Tris 8.0 (Sigma, Cat. No. T2694-1L), 0.01% Tween-20 (Sigma, Cat. No. P2287-100ML), and 1 mM DTT (Sigma, Cat. No. D0632-10G). […] Subsequently, the concentration (X) and corresponding inhibition rate (Inh%) (Y) were input into EXCEL. The XLFit plug-in was then used to fit the data using the built-in four-parameter logistic equation: Y = Bottom + (Top - Bottom)/(1 + (IC50/X) […]). The IC50 (half-maximal inhibitory concentration) value for each compound was then calculated.

T1 sequence (O14744 whole entry): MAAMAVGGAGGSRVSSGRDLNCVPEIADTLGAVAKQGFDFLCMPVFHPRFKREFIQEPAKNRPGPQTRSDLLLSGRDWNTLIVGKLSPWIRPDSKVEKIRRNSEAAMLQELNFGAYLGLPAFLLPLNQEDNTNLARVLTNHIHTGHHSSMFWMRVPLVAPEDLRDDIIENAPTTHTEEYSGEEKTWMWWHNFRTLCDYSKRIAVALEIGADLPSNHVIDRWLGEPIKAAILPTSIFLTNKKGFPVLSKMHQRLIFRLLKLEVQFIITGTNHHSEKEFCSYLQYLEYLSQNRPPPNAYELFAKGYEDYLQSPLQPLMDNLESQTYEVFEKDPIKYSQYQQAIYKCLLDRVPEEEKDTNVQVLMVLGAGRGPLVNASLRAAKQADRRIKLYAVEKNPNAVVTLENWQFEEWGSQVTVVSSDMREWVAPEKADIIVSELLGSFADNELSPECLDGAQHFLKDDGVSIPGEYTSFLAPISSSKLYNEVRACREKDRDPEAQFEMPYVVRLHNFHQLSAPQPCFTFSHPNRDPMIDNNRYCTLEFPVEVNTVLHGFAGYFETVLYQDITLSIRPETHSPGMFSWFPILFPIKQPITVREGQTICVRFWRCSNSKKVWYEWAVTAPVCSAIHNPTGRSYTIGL
T1 sequence (Q9BQA1 whole entry partner): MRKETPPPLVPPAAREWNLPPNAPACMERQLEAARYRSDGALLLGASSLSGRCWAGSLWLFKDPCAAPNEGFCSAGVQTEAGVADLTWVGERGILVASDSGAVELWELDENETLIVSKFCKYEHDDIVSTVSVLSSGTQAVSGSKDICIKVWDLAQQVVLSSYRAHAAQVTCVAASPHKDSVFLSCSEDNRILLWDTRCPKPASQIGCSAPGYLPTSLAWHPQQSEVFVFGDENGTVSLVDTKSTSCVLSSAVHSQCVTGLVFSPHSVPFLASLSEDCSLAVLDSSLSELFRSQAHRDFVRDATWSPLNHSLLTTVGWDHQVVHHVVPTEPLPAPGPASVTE

| SMILES | tumor inhibition effects [1] | IC50 [2] | IC50 [3] | inhibitory activity against the enzymatic activity ([3]; in vitro, statement in words) |
| --- | --- | --- | --- | --- |
| CC(C)Oc1nc(NC2CCN(C(=O)c3ccccc3)CC2)cc(C(=O)N2CC[C@@H](N3CCc4ccccc4C3)[C@H](O)C2)n1 [Example 1, (6-((1-benzoylpiperidin-4-yl)amino)-2-isopropoxypyrimidin-4-yl)((3R,4R)-4-(3,4-dihydroisoquinolin-2(1H)-yl)-3-hydroxypiperidin-1-yl)methanone] | excellent tumor inhibition effects | 0.0466 µM | 0.0064 µM | strong inhibitory effects |
| CC(=O)N1CCC(Nc2cc(C(=O)N3CCC(N4CCc5ccccc5C4)CC3)nc(C)n2)CC1 [reference compound, reference compound] |  | 2.71 µM | 0.115 µM |  |
